Here are results for five compounds from patent US7220732B2, “Compounds useful as photodynamic therapeutic agents” (priority 2002, dated 2007).

Data set [1] in a line: Spectroscopic absorbance properties. Format: physicochemical. From the text:
(§1) The absorption bands of each photosensitiser are relatively insensitive to solvent changes with solutions in water/Cremophor resulting in a further bathochromic shift of ˜10 nm (Table 1). Excitation of chloroform solutions of the 2a and 4a at 635 nm gave a fluorescence band at 672 and 673 nm respectively (FIG. 2, Table 2). […] The reduction in fluorescence quantum yield in the series would imply more efficient population of the triplet excited state which would benefit singlet oxygen production. The ability of 2 and 4 to produce singlet oxygen would be a prerequisite to them being potential PDT agents.

Data set [2] is described as follows: Fluorescence emission and fluorescence quantum yield. The conditions noted are these: for Φf (fluorescence quantum yield): relative to magnesium tetra-tert-butylphthalocyanine in CHCl3, room temperature. In kind it is physicochemical.
From the text: as §1

A further data set has as its system HeLa cells. The data set is described as follows: Light/dark cytotoxicity study (MTT) in HeLa cells. Format: cell-based. Here is the method: (§2) MRC5 and HeLa cell cultures were maintained in MEM (minimum essential medium) containing 10% (v/v) foetal calf serum (FCS), 1% (v/v) non-essential amino acids, 2 μg/ml Fungizone (Trade Mark) (amphotericin B), 50 μg/ml penicillin, 50 μg/ml streptomycin, 20 mM HEPES and 1% (v/v) L-Glutamine. Cells were passaged at least twice before use in the cytotoxicity assays.
(§3) Stock haematoporphyrin water-dimethyl sulphoxide (DMSO) (100:1 (v/v)) solutions were diluted with MEM containing 10% FCS. Cells were seeded at 5,000 cells/well in 96-well plates and incubated for 24 hr at 37° C. The 24 hour incubation period was chosen having regard to the slower uptake of haernatoporphyrin in the absence of Cremophor, when compared to the compounds of the present invention in the presence of Cremophor (see below). Cells were then incubated with haematoporphyrin in the dark for 24 hr at 37° C. The haematoporphyrin laden culture medium was then removed by filtration, the cells were washed with PBS and fresh culture medium was added to each well. A 500 W light source, passed through a red glass and water filter barrier, (to ensure cells are irradiated with light of wavelength greater than 570 nm) was used to irradiate the plates for both 15 and 30 min. Following irradiation, the cells were incubated for a further 48 hr at 37° C. before being assessed for cell survival.
(§4) Stock 2a or 2b water-Cremophor EL (Trade Mark—CAS 61791-12-6) (1:250 (v/v)) solutions were diluted with MEM containing 10% FCS. Cells were seeded at 5,000 cells/well in 96-well plates and incubated for 24 hr at 37° C. Cells were then incubated with 2a or 2b in the dark for 3 hr at 37° C. The 3 hour incubation period was chosen to reflect the faster cellular uptake of 2a or 2b in the presence of Cremophor, when compared to the cellular uptake of haematoporphyrins in the absence of Cremophor. The 2a or 2b laden culture medium was then removed by filtration, the cells were washed with PBS and fresh culture medium was added to each well. The plates were then irradiated using a 500 W light source passed through a red glass and water filter barrier, (thereby ensuring cells are irradiated with light of wavelength greater than 570 nm) for both 15 and 30 min.
(§5) Following irradiation, the cells were incubated for a further 48 hr at 37° C. before being assessed for cell survival. The dark toxicity of compounds of the present invention was also assessed in each experiment.
(§6) Cell viability was estimated using the standard MTT (microtiter tetrazolium) assay. This assay measures mitochondrial dehydrogenase activity and is based on the reduction of a soluble yellow tetrazolium salt to a blue, insoluble MTT formazan product by this enzyme. The subsequent colour change produced by viable cells was quantified using a plate reader (VICTOR^2 1420 multilabel HTS counter, Wallac). As mentioned above under the headings “Cytotoxicity”, the cells are incubated at 37° C. for 48 hours, following which the MTT solution was added to the cells at a final concentration of 0.5 mg/ml and incubated for 3 hr at 37° C. The MTT solution was then removed by filtration and 100 μl DMSO was added to each well in order to lyse the cells and release the formazan dye. The plates were read 1 hr later at 540 nm.
(§7) Prism (Trade Mark) […] was used to graph the data obtained from the MTT assays and the uptake/efflux experiments. This programme allows non-linear regression analysis and the generation of sigmoidal dose response curves. Prism (Trade Mark) also automatically calculates EC50 values.
(§8) Light toxicity assays were also carried out as described above under “Assay methods” in HeLa and MRC5 cells for haematoporphyrin (FIGS. 9 and 10), 2a (FIGS. 11 and 12) and 2b (FIGS. 13 and 14).

In a further data set the test system is MRC5 cells. Put plainly: Light/dark cytotoxicity study (MTT) in MRC5 cells. In kind it is cell-based. The method, then: as §2, §3, §4, §5, §6, §7, §8
The mark [3] stands for this setting: Water/Cremophor (100:1), room temperature.
[4] abbreviates: CHCl3, room temperature, excitation at 635 nm.

Where two headings read alike, the source gives them in different places.

In the case of `COc1ccc(C2=[N+]3C(=Nc4c(-c5ccccc5)cc(-c5ccc(OC)cc5)n4[B-]3(F)F)C(c3ccccc3)=C2)cc1` [Compound 2b], the “fwhm (full width at half maximum)” value in data set [1] (CHCl3, room temperature) amounted to 55 nm; in data set [1] (setting [3]), 57 nm. The “ε (molar extinction coefficient)” value in data set [1] (CHCl3, room temperature) is on record as 85,000 M^−1cm^−1. Besides, the “λmax (absorbance)” value in data set [1] (CHCl3, room temperature) is 688 nm; in data set [1] (setting [3]), 696 nm. Besides, the results for the “λ em (fluorescence band)” value in data set [2] (setting [4]) and in data set [2] (setting [3]) were 715 nm and 727 nm, respectively. In addition, the “Φf (fluorescence quantum yield)” value in data set [2] is reported as 0.36. The EC50 with HeLa cells (0 J/cm^2 light (no light), read-out: EC50 (dark toxicity)) was determined as 62 µM; in the data set with HeLa cells (8 J/cm^2 light (15 mins from a 500 W light source), read-out: EC50), 53 µM; in the data set with HeLa cells (16 J/cm^2 light (30 mins from a 500 W light source), read-out: EC50), 25 µM; in the data set on MRC5 cells (MRC5, 8 J/cm^2 light (15 mins from a 500 W light source), read-out: EC50), 220 µM; with MRC5 cells (MRC5, 16 J/cm^2 light (30 mins from a 500 W light source), read-out: EC50) it was 22 µM. Also, the “EC50 (dark toxicity)” value in the data set with MRC5 cells (MRC5, 0 J/cm^2 light (no light)) is recorded as “un-measurable”.

In the case of `F[B-]1(F)n2c(c(-c3ccccc3)c(Br)c2-c2ccccc2)N=C2C(c3ccccc3)=C(Br)C(c3ccccc3)=[N+]21` [Compound 4a], the “fwhm (full width at half maximum)” value came out at 47 nm in data set [1] (CHCl3, room temperature) and 57 nm in data set [1] (setting [3]). The “ε (molar extinction coefficient)” value in data set [1] (CHCl3, room temperature) is 79,000 M^−1cm^−1. Besides, the “λmax (absorbance)” value came out at 650 nm in data set [1] (CHCl3, room temperature) and 651 nm in data set [1] (setting [3]). Also, the “λ em (fluorescence band)” value in data set [2] (setting [4]) turned out to be 673 nm; in data set [2] (setting [3]), 679 nm. Further, in data set [2], the “Φf (fluorescence quantum yield)” value worked out at 0.012.

In the case of `COc1ccc(C2=[N+]3C(=Nc4c(-c5ccccc5)c(Br)c(-c5ccc(OC)cc5)n4[B-]3(F)F)C(c3ccccc3)=C2Br)cc1` [Compound 4b], in data set [1] (CHCl3, room temperature), the “fwhm (full width at half maximum)” value was found to be 57 nm, the “ε (molar extinction coefficient)” value is given as 75,000 M^−1cm^−1 and the “λmax (absorbance)” value was 679 nm. Besides, in data set [1] (setting [3]), the “fwhm (full width at half maximum)” value amounted to 86 nm and the “λmax (absorbance)” value was found to be 685 nm. Moreover, the “λ em (fluorescence band)” value in data set [2] (setting [4]) worked out at 714 nm. In addition, in data set [2] (setting [3]), the “λ em (fluorescence band)” value is on record as 719 nm. For the same compound, the “Φf (fluorescence quantum yield)” value in data set [2] came to 0.10.

On to `F[B-]1(F)n2c(-c3ccccc3)cc(-c3ccc(Br)cc3)c2N=C2C(c3ccc(Br)cc3)=CC(c3ccccc3)=[N+]21` [Compound 5a], for which the “ε (molar extinction coefficient)” value in data set [1] (CHCl3, room temperature) is 74,000 M^−1cm^−1. Also, the “λmax (absorbance)” value in data set [1] (CHCl3, room temperature) stood at 658 nm; in data set [1] (setting [3]), 667 nm. In data set [2] (setting [4]), the “λ em (fluorescence band)” value came to 680 nm.

Turning to `CC1=C(CCC(=O)O)c2cc3[nH]c(cc4nc(cc5[nH]c(cc1n2)c(C)c5C(C)O)C(C)=C4C(C)O)c(C)c3CCC(=O)O` (stereo not shown) [haematoporphyrin, reference compound], the EC50 in the data set with HeLa cells (Homo sapiens, light or radiation study, 0 J/cm^2 light (no light), read-out: EC50 (dark toxicity)) is 77 µM; in the data set with HeLa cells (Homo sapiens, light or radiation study, 0.25 h, 8 J/cm^2 light (15 mins from a 500 W light source), read-out: EC50) it was 15 µM; with HeLa cells (Homo sapiens, light or radiation study, 0.5 h, 16 J/cm^2 light (30 mins from a 500 W light source), read-out: EC50), 16 µM; in the data set on MRC5 cells (Homo sapiens, light or radiation study, 0.25 h, MRC5, 8 J/cm^2 light (15 mins from a 500 W light source), read-out: EC50), 42 µM; in the data set with MRC5 cells (Homo sapiens, light or radiation study, 0.5 h, MRC5, 16 J/cm^2 light (30 mins from a 500 W light source), read-out: EC50), 29 µM; in the data set with MRC5 cells (Homo sapiens, light or radiation study, MRC5, 0 J/cm^2 light (no light), read-out: EC50 (dark toxicity)), 1400 µM.

In general, EC50 refers to the concentration giving half of the maximal effect.
